From ChEMBL document CHEMBL3507680, “University of Dundee, Gates Library screen for HepG2 cell viability”

Test: Human HepG2 cell viability assay in 384 well format
Type: toxicity, cell-based
Parameters: dose 125 nL, time 70.5 hour; concentration not given beside the values
Conditions: HepG2 cells, read-out: Inhibition

Structure (SMILES)	cytotoxicity at 70.5 h
Cn1c(NCC(=O)N2CCCCC2)c(C#N)c(=O)n(C)c1=O	-11.6%
COCCNC(=O)NCCCOC1CCCc2ccccc21 (configuration not stated)	1.91%
CC1CCN(S(=O)(=O)N2CCc3c(c(C(=O)O)nn3CC3CC3)C2)CC1	1.09%
Cc1c(CNCC(C)Oc2cccnc2)c2ccccc2n1CC(N)=O (configuration not stated)	2.14%
CC(C)NC(=O)[C@@H]1C[C@H](N)CN1C(=O)C1(c2ccc(Cl)cc2)CCC1	-9.78%
CCOc1ccc(Cl)c(C(=O)NCCC(=O)Nc2ccncc2)n1	0.642%
CN(Cc1nnc(C2CC2)n1C)C1CCN(Cc2ccon2)C1 (configuration not stated)	-12.4%
CN(C)C(=O)CN1CCCC1c1nc(N)ncc1-c1ccc(F)cc1 (configuration not stated)	2.44%
Fc1ccccc1-c1nccnc1C1CCCNC1 (configuration not stated)	-8.72%
CC(C)(C)OC(=O)N1CCC[C@H](NCc2cc[nH]c2)C1	-11%
c1ccc(Cc2nc(CN3CCCC3Cn3cncn3)cs2)cc1 (configuration not stated)	-7.1%
O=C1CC(c2ccsc2)c2c(n(C3CCOCC3)[nH]c2=O)N1 (configuration not stated)	14.8%
COc1cccc(C(=O)NC(c2ccccn2)[C@H]2CC[C@H](CN)CC2)c1 (some centres not stated)	-8.19%
OC1(CN2CCCC2)COCCN(c2cc(C(F)(F)F)ccn2)C1 (configuration not stated)	-7.83%
CC1CN(c2ncccc2C(=O)N[C@@H]2CCCc3ccccc32)CCN1 (some centres not stated)	-4.37%
CN1CCOC[C@H]1c1nc(-c2ccccc2)c[nH]1	-9.46%
COCCNc1ccc(CC2CCCNC2)cn1 (configuration not stated)	-7.04%
COCCN1CCC(CN(C)c2ncnc3c2c(C)nn3C)C1 (configuration not stated)	6.13%
CCC1CN(Cc2nnc(C3CC3)o2)CCC(=O)N1Cc1ccccc1 (configuration not stated)	20.4%
O=C(Nc1cc[nH]n1)c1ccc(COCC(F)(F)F)cc1	-4%
COC(C)(C)CNC(=O)N1CCCC1c1c(C)n[nH]c1C (configuration not stated)	-13.9%

Structure (SMILES)	cytotoxicity at 70.5 h
COCCc1noc(-c2cn(Cc3ccc(OC)cc3)nn2)n1	7.6%
N#Cc1cccc(CN2CC[C@@H]3[C@@H]2CC(=O)N3CCN2CCCC2)c1	-9.81%
Cc1ccc(O)c(CN(Cc2ccccc2)Cc2nccs2)n1	-4.83%
CC(C)Oc1ccc(CNC(=O)C2CCC(=O)N2)cn1 (configuration not stated)	23%
Cc1cc(CNC(=O)N2CCc3ccccc32)on1	-1.25%
O=C(c1cccc(-n2cnnc2)c1)N1C[C@@H](O)[C@H](N2CCOCC2)C1	-1.32%
CCn1ccnc1CN1CCCC(N(C)CCc2ccccc2)C1 (configuration not stated)	-1.22%
Cc1cc(C2CCCN2C(=O)NCc2cccnc2N(C)C)on1 (configuration not stated)	23.2%
CCC(C)C(=O)N(CC(=O)OC)c1cccc(C)n1 (configuration not stated)	2.47%
Cc1cnccc1N1CCN(C(=O)C2CC3(CCNCC3)CN2)CC1 (configuration not stated)	-5.99%
Cc1cc(-c2cc(N)c(=O)n(CC(=O)NC3CCCCC3)n2)c(C)o1	-15.5%
CC(C)(C)NC(=O)CNc1ccc(C#N)c(C(F)(F)F)c1	-5.25%
Cn1c(CN2CCOC(c3nc(C(C)(C)C)n[nH]3)C2)nnc1C1CC1 (configuration not stated)	26.5%
CNC(=O)COc1cccc(CNC(=O)c2c(C)noc2C)c1	-10.6%
CC(C)Oc1cccc(CNC(=O)N2CCC(N3CC=CC3)C2)c1 (configuration not stated)	26.6%
O=C(CCCc1nc2ccccc2[nH]1)N1CCCC(n2cccn2)C1 (configuration not stated)	-1.12%
CCn1nc(C)c(C(C)NC(=O)c2cnc(N(C)C)nc2C)c1C (configuration not stated)	1.08%
Cc1cc(NCc2ccccc2CN2CCCCC2)n2ncnc2n1	-10.1%
Cc1nc2n(n1)CC(NCc1cc(Cl)c3c(c1)OCCO3)CC2 (configuration not stated)	-4.92%
CC1CN(Cc2ccc(C#N)cc2F)CCN1Cc1nccn1C (configuration not stated)	-5.45%
CC(=O)c1c(F)cccc1NC1CCN(C(=O)C2CCCCC2)CC1	-2.39%

Structure (SMILES)	cytotoxicity at 70.5 h
N#Cc1ccc(OCCNCCn2cccn2)cc1	-10.2%
COc1ccccc1OCCNCc1c(C)nn(C)c1N(C)C	-3.32%
COc1ccc(C2SC(C)=Nc3c2c(=O)[nH]n3C2CCCCC2)cc1O (configuration not stated)	2.14%
CCNC(=O)N1CCC(Cc2cccc(C(N)=O)c2)C1 (configuration not stated)	-5.09%
CCC(=O)N1CCN(C(=O)Nc2ccccc2-c2cccs2)CC1	-5.63%
O=S(=O)(Nc1cn[nH]c1)c1ccc(F)c(Br)c1	-4.68%
Cc1n[nH]c(C(=O)N2CCCC(C)CC2)c1Br (configuration not stated)	-5.15%
NC(=O)NCC1CCCCN1Cc1nc(-c2ccco2)no1 (configuration not stated)	-9.61%
O=C1CCC(C(=O)NCc2nn(-c3ccccc3)c3c2CCC3)CN1 (configuration not stated)	4.23%
CCC1CN(C(=O)Cc2coc(-c3ccccc3)n2)CCO1 (configuration not stated)	-3.32%
CC1COCCN1C(=O)COc1ccc(Oc2ccccn2)cc1 (configuration not stated)	1.4%
Cn1c(C(F)(F)F)nn(CCNC(=O)Nc2ccccc2Cl)c1=O	25.1%
CCN(CC)CCN1CCO[C@H]2[C@@H](OCc3ccncc3)CC[C@@H]21	-1.93%
Cc1ccccc1CN(C)C(=O)Cn1nc(-c2ccc(F)cc2)oc1=O	29.6%
CC(C)c1noc(CCNC(=O)C2COc3ccccc3C2)n1 (configuration not stated)	13.6%
Cc1nnc(C2Cc3ccccc3CN2Cc2ncc(C(C)(C)C)o2)o1 (configuration not stated)	34.5%
Cc1nc(CN2C(=O)COC3(CCN(CC4CC4)CC3)C2C)cs1 (configuration not stated)	2.37%
Cc1cc(=O)n(CC(=O)Nc2ccc(C(N)=O)cc2)nc1C	-4.34%
N#Cc1cccc(NC(=O)N[C@H](CO)c2ccccc2)c1	-10.8%
Cn1nc(CNC(=O)c2ccc3c(c2)OCO3)c2c1CCOC2	5.45%
COCC1CN(C(=O)c2ccnnc2)Cc2c1cnn2C (configuration not stated)	-1.23%

Structure (SMILES)	cytotoxicity at 70.5 h
CS(=O)(=O)N1Cc2nccn2CC(CN2CCCC2)C1 (configuration not stated)	-3.59%
CC(=O)NCC(=O)N1CCc2nc(C)nc(C)c2CC1	5.59%
O=C(N[C@H]1CN(c2ccncc2)C[C@@H]1C1CC1)C1CCOCC1	-3.12%
COc1ccc(C[C@H]2CN(C3CCOCC3)CC[C@@H]2OCC2CC2)cc1	-3.98%
COc1ccc(-c2ccnc(N)c2)c(C)c1	-15.9%
CN(C)c1cc(CNC(=O)c2cc(F)ccc2F)ccn1	0.104%
COC1CCCN(C(=O)NCC(F)F)C1 (configuration not stated)	-5.69%
CCc1nc(CN(C)CC2CCN(CCO)CC2)no1	-9.2%
COCc1ncc(CN2C[C@@H](C(=O)O)[C@H](C(C)C)C2)cn1	9.21%
O=C(c1ccc2c(c1)OCO2)N1CCCC(n2ccnc2)C1 (configuration not stated)	10.2%
Cc1nc(CCCN2CCOCC2)n(Cc2ccc(F)cc2)n1	-12.5%
CN1CCCCC12Cc1ccccc1CN(C(=O)C1CCCC1)C2 (configuration not stated)	-6.1%
COc1ccc(Cl)cc1-c1cc(NC(=O)CNC(=O)C2CC2)[nH]n1	-7.16%
CCc1noc(C(C)N2CCN(Cc3cnc(C)cn3)CC2)n1 (configuration not stated)	16.3%
CCn1cnnc1C1CCN(C(=O)c2cccc3c2ccn3C)CC1	6.06%
CC(C)N(C)CCCNC(=O)c1cnn(C(C)(C)C)c1C(F)(F)F	-7.79%
Cc1nc2c(c(NCc3nc4ccccc4s3)n1)CCNCC2	-4.98%
Cc1cnc(N2CCn3c(CN4CCOCC4)nnc3C2)nc1	21.1%
COc1ccc(C(=O)N2CCCCC2c2ccccn2)c(OC)n1 (configuration not stated)	15.4%
